Test results reported in the NIST ThermoML archive (doi:10.1021/acs.jced.5b00784).
± gives the expanded uncertainty stated by the source.

What was measured:
[1] = xn = mol fraction of the nth substance listed; conditions: Liquid, Vibrating tube method, x2 = 0.377
[2] = Liquid, isochoric method

COC(F)(F)C(F)(C(F)(F)F)C(F)(F)F [methyl nonafluoroisobutyl ether] + COC(F)(F)C(F)(F)C(F)(F)C(F)(F)F
[1]
Conditions | mass density [kg/m3]
275.02 K, 1984 kPa | 1579.6 ± 4.7
277.09 K, 3723 kPa | 1579.2 ± 4.7
279.26 K, 5543 kPa | 1578.7 ± 4.8
279.43 K, 273 kPa | 1564.5 ± 4.7
279.75 K, 524 kPa | 1564.4 ± 4.7
279.75 K, 527 kPa | 1564.4 ± 4.7
280.37 K, 972 kPa | 1563.7 ± 4.7
280.46 K, 1101 kPa | 1564.3 ± 4.7
280.94 K, 1442 kPa | 1564.2 ± 4.7
281.34 K, 7289 kPa | 1578.3 ± 4.8
281.55 K, 1942 kPa | 1563.5 ± 4.7
281.92 K, 2278 kPa | 1564 ± 4.7
281.94 K, 2249 kPa | 1564 ± 4.7
282.38 K, 2648 kPa | 1563.9 ± 4.7
283.21 K, 3315 kPa | 1563.7 ± 4.7
283.5 K, 9101 kPa | 1577.9 ± 4.8
283.65 K, 3673 kPa | 1563.6 ± 4.7
284.04 K, 3949 kPa | 1563.6 ± 4.7
284.44 K, 4290 kPa | 1563.5 ± 4.7
285.1 K, 4838 kPa | 1563.3 ± 4.7
285.42 K, 5083 kPa | 1563.3 ± 4.7
285.49 K, 10769 kPa | 1577.5 ± 4.8
285.94 K, 5471 kPa | 1563.2 ± 4.7
286.26 K, 5744 kPa | 1563.1 ± 4.7
286.26 K, 5757 kPa | 1563.1 ± 4.7
286.61 K, 5994 kPa | 1562.5 ± 4.7
286.95 K, 6330 kPa | 1562.9 ± 4.7
287.26 K, 6535 kPa | 1562.3 ± 4.7
287.54 K, 6765 kPa | 1562.9 ± 4.7
287.54 K, 6789 kPa | 1562.9 ± 4.7
287.59 K, 12510 kPa | 1577.1 ± 4.8
287.68 K, 6872 kPa | 1562.8 ± 4.7
288.04 K, 7178 kPa | 1562.8 ± 4.7
288.9 K, 7893 kPa | 1562.5 ± 4.7
289.56 K, 14156 kPa | 1576.7 ± 4.8
289.6 K, 8425 kPa | 1562.5 ± 4.7
289.6 K, 8448 kPa | 1562.5 ± 4.7
289.6 K, 8462 kPa | 1562.2 ± 4.7
289.72 K, 8502 kPa | 1562.4 ± 4.7
291.62 K, 15869 kPa | 1576.2 ± 4.8
291.67 K, 10052 kPa | 1562 ± 4.7
291.67 K, 10070 kPa | 1562 ± 4.7
291.67 K, 10101 kPa | 1562 ± 4.7
292.61 K, 10815 kPa | 1561.9 ± 4.7
292.7 K, 10872 kPa | 1561.2 ± 4.7
293.44 K, 11481 kPa | 1561.7 ± 4.7
293.52 K, 17446 kPa | 1575.9 ± 4.8
294.31 K, 12183 kPa | 1561.5 ± 4.7
295.32 K, 12982 kPa | 1561.3 ± 4.7
295.59 K, 19153 kPa | 1575.4 ± 4.8
296.29 K, 13751 kPa | 1561.1 ± 4.7
298.57 K, 15560 kPa | 1560.7 ± 4.7
299.64 K, 16411 kPa | 1560.5 ± 4.7
300.65 K, 17215 kPa | 1560.3 ± 4.7
301.34 K, 17761 kPa | 1560.1 ± 4.7
302.6 K, 18751 kPa | 1559.9 ± 4.7
302.6 K, 18786 kPa | 1559.9 ± 4.7

FC(C(F)(F)F)C(F)(F)F [1,1,1,2,3,3,3-heptafluoropropane]
[2]
Conditions | mass density [kg/m3]
268.92 K, 1786 kPa | 1509.3 ± 4.5
271.83 K, 3840 kPa | 1508.5 ± 4.5
274.3 K, 5598 kPa | 1508.1 ± 4.5
277.7 K, 8059 kPa | 1507.7 ± 4.5
279.51 K, 839 kPa | 1466.6 ± 4.4
280.8 K, 10284 kPa | 1507.3 ± 4.5
281.32 K, 1993 kPa | 1465.2 ± 4.4
283.42 K, 3331 kPa | 1464.8 ± 4.4
283.61 K, 12288 kPa | 1507 ± 4.5
285.37 K, 4577 kPa | 1464.6 ± 4.4
286.43 K, 1142 kPa | 1441.9 ± 4.3
286.67 K, 1203 kPa | 1440.9 ± 4.3
286.7 K, 14495 kPa | 1506.7 ± 4.5
287.36 K, 5848 kPa | 1464.3 ± 4.4
288.43 K, 2193 kPa | 1440 ± 4.3
289.14 K, 2747 kPa | 1440.7 ± 4.3
289.31 K, 16361 kPa | 1506.4 ± 4.5
289.41 K, 7162 kPa | 1464.1 ± 4.4
290.44 K, 3367 kPa | 1439.5 ± 4.3
291.46 K, 8474 kPa | 1463 ± 4
292 K, 4466 kPa | 1440.2 ± 4.3
292.45 K, 4875 kPa | 1439.1 ± 4.3
293.4 K, 9717 kPa | 1463.7 ± 4.4
294.61 K, 5846 kPa | 1438.9 ± 4.3
294.98 K, 6251 kPa | 1439.8 ± 4.3
295.29 K, 10924 kPa | 1463.5 ± 4.4
296.72 K, 7101 kPa | 1438 ± 4
297.18 K, 12136 kPa | 1463.3 ± 4.4
297.85 K, 7978 kPa | 1439.5 ± 4.3
298.7 K, 8273 kPa | 1438.5 ± 4.3
299.38 K, 13527 kPa | 1463.1 ± 4.4
300.87 K, 9562 kPa | 1438.2 ± 4.3
300.89 K, 9788 kPa | 1439.2 ± 4.3
301.4 K, 14839 kPa | 1462.9 ± 4.4
302.74 K, 10686 kPa | 1438.1 ± 4.3
302.94 K, 15829 kPa | 1462.8 ± 4.4
303.82 K, 11544 kPa | 1438.9 ± 4.3
304.8 K, 11916 kPa | 1437.9 ± 4.3
306.88 K, 13381 kPa | 1438.6 ± 4.3
306.95 K, 13205 kPa | 1437.7 ± 4.3
309 K, 14427 kPa | 1437.5 ± 4.3
310.05 K, 15281 kPa | 1438.3 ± 4.3
311.05 K, 15654 kPa | 1437.3 ± 4.3
312.85 K, 16727 kPa | 1437.1 ± 4.3
312.95 K, 17014 kPa | 1438 ± 4.3
